Reference: patent US6017933A, “Mannich bases of conjugated styryl ketones” (University of Saskatchewan Technologies Inc., priority 1999, dated 2000)
Where “and” joins values, the source holds several entries; their conditions need not be identical. Equal values may be shown once. Entries after “also recorded” stand apart in the source; their conditions may differ. Where a name gives a salt, the structure may show the parent alone. Read-outs that look alike come from different tables or passages of the source.

Experiments:
[1] = test system: LOX IMVI; assay: LOX IMVI human melanoma xenograft in athymic mice; type: in vivo, human tumor in athymic mice; settings: 80 mg/kg
Description: (§1) The compounds were examined by the Developmental Therapeutics Program, National Cancer Institute, U.S.A. The murine P388 lymphocytic leukemia assay was conducted by a reported known method and the maximum ILS figures for 9d and 10a were 5 and 20% respectively using doses of 54 and 6.7 mg/kg respectively. An increase of 20% or more in the life spans is considered to be statistically significant. A reference drug 5-fluorouracil has an ILS of >35 using a dose of 20 mg/kg when given intraperitoneally for five days. Passage of human tumors in athymic mice was undertaken by a known method. No definitions of activity are available but as a general rule compounds causing a 60% reduction in tumor weights in one of these screens would be evaluated further.

[2] = test system: SW-620; assay: SW-620 human colon tumor xenograft in athymic mice; type: in vivo; settings: 80 mg/kg
Description: as §1

[3] = test system: human Jurkat T cells; assay: Growth inhibition of Jurkat T cells, trypan blue exclusion test; type: cell-based; settings: read-out: growth of Jurkat T cells inhibited by 50% (IC50), 48 hours, 37° C., trypan blue
Description: All cell cultures used were maintained in RPMI 1640 medium, pH 7.4 supplanted with 10% fetal bovine serum and 50 μg/ml of gentamycin in 25 ml culture flasks at 37° C. in a humidified gas mixture of 5% carbon dioxide balanced with air and were passaged three times a week.
(§2) Cell viability was determined by the trypan blue exclusion test according to a literature procedure (Duke and Cohen, 1992). […] A flask containing ~10^6 cells/ml and 8 or […] of DMSO was used as the control. […] After 48 hours, cells were counted using a haemocytometer. The percentage of growth inhibition was calculated as follows: (C-T/C)×100 where C is the mean cell number in the control and T is the mean cell number in each treatment. […] All experiments were performed in triplicate.

[4] = test system: COLO 205; assay: COLO 205 human colon tumor xenograft in athymic mice; type: in vivo
Description: as §1

[5] = test system: Jurkat T, LV-50, H-9 and Molt-3 cells; assay: Cell viability of Jurkat T, LV-50, H-9 and Molt-3 cells; type: cell-based; settings: 10 μM, 24 hour
Description: FIG. 5 is a graph showing percent viability of Jurkat T, LV-50, H-9 and Molt 3 cells after exposure to 10 μM of compound 9d for a 24 hour period with error bars representing mean±standard deviation in three separate experiments;
as §2

[6] = test system: human Jurkat T cells; assay: DNA fragmentation by agarose gel electrophoresis; type: cell-based; settings: Compound 9d 6 and 10 μM; melphalan 10 μM
[7] = test system: NCI-H522; assay: NCI-H522 human non-small cell lung tumor xenograft in athymic mice; type: in vivo; settings: 80 mg/kg
Description: as §1

[8] = test system: P388 lymphocytic leukemia; assay: Murine P388 lymphocytic leukemia in vivo screen
Description: In order to evaluate whether these promising results could be translated into in vivo activity, two representative compounds 9d and 10a were chosen. […] These two compounds were examined in the murine P388 screen and against certain human tumors in athymic mice.
as §1

[9] = test system: Molt 4/C8 cells; assay: Cytotoxicity, Molt 4/C8 human T-lymphocytes; settings: for TIL1210 (Molt 4/C8 cells): IC50 T-lymphocytes (Molt 4/C8)/IC50 L1210; for TIP388 (Molt 4/C8 cells): IC50 T-lymphocytes (Molt 4/C8)/IC50 P388; for TIht (Molt 4/C8 cells): IC50 T-lymphocytes (Molt 4/C8)/IC50 human tumors
[10] = test system: L1210 cells; assay: Cytotoxicity, murine L1210 leukemic cells; type: cell-based; settings: Mus musculus, mean
[11] = test system: human tumors; assay: Cytotoxicity, human tumor cell line panel (approximately 55 lines)
[12] = test system: human Jurkat T cells; assay: Apoptosis, fluorescence microscopy with acridine orange and ethidium bromide; settings: for percentage of apoptotic cells: 17 hours, control 4.4%
[13] = test system: CEM cells; assay: Cytotoxicity, CEM human T-lymphocytes; settings: for IC50: Homo sapiens, CCRF-CEM; for TIL1210 (CEM cells): IC50 T-lymphocytes (CEM)/IC50 L1210; for TIP388 (CEM cells): IC50 T-lymphocytes (CEM)/IC50 P388; for TIht (CEM cells): IC50 T-lymphocytes (CEM)/IC50 human tumors
[14] = test system: P388 cells; assay: Cytotoxicity, murine P388 leukemic cells (P388 D1); settings: read-out: P388 cells IC50
[15] = test system: Candida albicans; assay: Vaginal candidiasis in ovariectomized rats; type: in vivo, Candida albicans in ovariectomized rats; settings: in Mineral Oil
Description: As well, ovariectomized rats predisposed for Candida albicans infection by estrogen treatment were infected vaginally with 1×10^7 CFU per ml to produce vaginal candidiasis. The infected animals were treated with Compound 9b once daily (100 mg/kg=2 mg/[…]) for 5 days. Vaginal fluid was collected from each animal 72 hr post-treatment and CFUs per rat were determined by plating the […] fluid on PYG agar containing 200 ug/ml gentamicin.

[16] = test system: ITZ-resistant Aspergillus fumigatus; assay: MIC and MLC, ITZ-resistant Aspergillus fumigatus, broth macrodilution; settings: for MIC: 48 h
[17] = test system: Aspergillus fumigatus conidia; assay: Kill-curve experiment, Aspergillus fumigatus conidia; type: cell-based
Description: Kill-Curve Experiment: 5 ml conidial suspension each of the AMB-, and ITZ-susceptible (W73355) and the resistant (AB16.4 and ITZ70) isolates prepared in PYG broth (1×10^6 conidia/ml) was incubated at 35° C. in the presence of 5 μm of AMB or 5 μm ITZ or 50 μm Compound 9b. At various time intervals, 0.1 ml aliquots of the conidial suspension were removed, diluted appropriately to obtain 10^2 to 10^4 fold dilution, and 0.1 ml aliquots were spread in duplicate on PYG agar plates. […] Identical treatment of the conidial suspension in the absence of the drug was used as the growth control.

[18] = test system: pathogenic yeasts and filamentous fungi; assay: Screening of conjugated styryl ketones against pathogenic yeasts and filamentous fungi; type: cell-based
Excerpt: Approximately 90 compounds belonging to the conjugated styryl ketone class were screened for their activity against pathogenic yeasts and filamentous fungi. […] Since none of the previously examined compounds provided encouraging results for further studies, a series of α,β-unsaturated ketones with two sites for thiol alkylation reaction were synthesized.

[19] = test system: Aspergillus fumigatus; assay: Murine pulmonary aspergillosis model; type: in vivo, Aspergillus fumigatus in DBA/2J female mice
Description: In vivo susceptibility studies: DBA/2J female mice (Jackson Laboratories) weighing 20-23 grams (≈6 weeks old) were used. The mice were immunosuppressed by 3 consecutive subcutaneous injections (0.5 ml each) of cortisone acetate (250 mg/kg; Sigma Chemical Company) in sterile distilled water containing 0.1% Tween 80. The immunosuppressed mice were anesthetized by exposing to ether in a desiccator for 45±5 seconds and infected with 20 μl inoculum containing 1×10^6 conidia delivered to the nares of the animals as a single droplet from a micropipet. Compound 9b and AMB were dissolved in dimethyl sulfoxide (DMSO) and administered 24 hr post infection by intraperitoneal injection in 0.2 ml PBS per dose. […] The efficacy of chemotherapy was assessed by determining percent survival and the fungal load (CFU/lungs) of infected animals as determined by semiquantitative organ culture.

[20] = test system: AMB-resistant Aspergillus fumigatus; assay: MIC and MLC, AMB-resistant Aspergillus fumigatus, broth macrodilution; settings: for MIC: 48 h
[21] = test system: Aspergillus fumigatus; assay: MIC and MLC, Aspergillus fumigatus, broth macrodilution
[22] = read-out: human tumors IC50, mean graph midpoint, approximately 55 cell lines, hydrobromide salts used for 4a, 11a-e

SMILES: CCN1CCC(O)(/C=C/c2ccc(C)cc2)C(C(=O)/C=C/c2ccc(C)cc2)C1 (stereo not shown) [Compound 9d]
- % ILS [1]: 12%
- % T/C [1]: 35%
- % ILS [2]: 9%
- % T/C [2]: 32%
- IC50 [3]: 3.46 µM
- % ILS ([4]; COLO 205, 200 mg/kg, increase in median time to reach a certain size): 28%
- percent reduction in median tumor weight ([4]; COLO 205, 200 mg/kg, percentage reduction of median tumor weight): 57%
- reduction in the weight of the human COLO 205 colon tumor ([4]; athymic mice, Example 5): 60%
- sensitivity of cell lines [5]: Jurkat T cells were the most sensitive in its response, although all cell cultures were affected
- DNA ladder / DNA fragmentation [6]: did not show any DNA ladder; also recorded: no DNA fragmentation was detected
- % ILS [7]: -2%
- % T/C [7]: 23%
- maximum ILS, murine P388 ([8]; 54 mg/kg): 5%
- activity in the murine P388 screen ([8]; in words): inactive
- cytotoxicity to murine leukemic and human tumor cells vs T-lymphocytes [9]: greater cytotoxicity to murine leukemic cells and human tumor cell lines than to T-lymphocytes
- TIL1210 (Molt 4/C8 cells) [9]: 4.44
- TIP388 (Molt 4/C8 cells) [9]: 12.85
- TIht (Molt 4/C8 cells) [9]: 5.39
- IC50 ([9]; read-out: Molt 4/C8 cells IC50): 27 µM
- IC50 [10]: 6.08 µM
- selective/preferential cytotoxicity towards colon cancer cells ([11]; human tumor screen): preferential cytotoxicity towards human colon cells; also recorded: preferential cytotoxicity to colon; also recorded: selective toxicity to human colon cancer cells
- IC50 [11, 22]: 5.01 µM
- apoptotic index / apoptosis induction (in words) [12]: the apoptotic index increased almost two fold; also recorded: greater apoptotic index than melphalan; also recorded: more potent inducer of apoptosis; also recorded: potent apoptotic agent
- time after which apoptotic effects were detectable [12]: 3 h
- morphological features ([12]; 6 μM, 17 h): characteristic blebbing and apoptotic bodies
- percentage of apoptotic cells ([12]; 6 μM): 22%
- percentage of apoptotic cells ([12]; 10 μM): 43%
- death of treated cells ([12]; 48 hours): all the treated cells had died
- IC50 ([13]; read-out: CEM cells IC50): 14 µM
- TIL1210 (CEM cells) [13]: 2.31
- TIP388 (CEM cells) [13]: 6.69
- TIht (CEM cells) [13]: 2.80
- IC50 [14]: 2.1 µM

SMILES: CCN1CCC(O)(/C=C/c2ccc(Cl)cc2)C(C(=O)/C=C/c2ccc(Cl)cc2)C1 (stereo not shown) [Compound 9b, (3-[3-(4-chlorophenyl)-2-propenoyl]-4-[2-(4-chlorophenyl)vinylene]-1-ethyl-4-piperidinol hydrochloride]
- % CFU reduction [15]: 97.4%
- Mean Value CFU/rat ([15]; mean of 6 animals, S.D. 1.7 × 10^4): 1.2 × 10^4 CFU/rat
- CFU/rat ([15]; individual animals, 100 mg/kg once daily for 5 days, 72 hr post-treatment, hydrochloride, 100 mg/kg): 4.6 × 10^4 CFU/rat and 4.2 × 10^3 CFU/rat and 8.3 × 10^2 CFU/rat and 1.7 × 10^4 CFU/rat and 3.5 × 10^2 CFU/rat and 6.5 × 10^3 CFU/rat
- MIC ([16]; read-out: MIC Mean ± SD): 10.9 ± 6.35 µM
- MIC ([16]; read-out: MIC Range): 3.12 to 25 µM
- MFC ([16]; read-out: MLC Range): 6.25 to 25 µM
- killing at 50 µM ([17]; Aspergillus fumigatus, 50 μm, within 24 hr): ≥ 90%
- fungicidal activity against AMB-resistant and ITZ-resistant isolates ([17]; data not shown): as susceptible to the fungicidal activity of Compound 9b as the susceptible one
- antifungal activity (in words) [18]: activity against both pathogenic yeasts and filamentous fungi at low concentrations
- reduction in CFU/lung ([19]; 6.25 mg/kg/day): 50%
- mortality rate ([19]; 6.5 mg/kg/day for five days, mice): did not show any greater mortality rate than the placebo or the AMB-treated groups
- fungal load of infected animals (in words) ([19]; mouse, in vivo, hydrochloride): reduced significantly; also recorded: not as efficient as AMB for the reduction of fungal load
- survival of infected animals ([19]; vs DMSO placebo): did not improve significantly over the placebo group
- MIC ([20]; read-out: MIC Mean ± SD): 9.85 ± 3.53 µM
- MIC ([20]; read-out: MIC Range): 6.25 to 12.5 µM
- MFC ([20]; read-out: MLC Range): 12 to 25 µM
- TIL1210 (Molt 4/C8 cells) [9]: 4.46
- TIP388 (Molt 4/C8 cells) [9]: 28.24
- TIht (Molt 4/C8 cells) [9]: 1.21
- IC50 ([9]; read-out: IC50 Molt 4/C8): 31.1 µM
- IC50 ([9]; read-out: Molt 4/C8 cells IC50): 31.1 µM
- IC50 [10]: 6.96 µM
- IC50 relative to mean MIC for Aspergillus fumigatus ([11]; mammalian cells (human tumor; b359 also Molt 4/C8 and CEM)): 2-3 fold
- IC50 [11, 22]: 25.7 µM
- IC50 ([11]; read-out: mean IC50 value for 55 different human tumour cells): 25.7 µM
- MIC ([21]; Aspergillus fumigatus, 48 h, read-out: MIC Mean ± SD): 11.9 ± 5.32 µM
- MIC ([21]; Aspergillus fumigatus, 48 h, read-out: MIC Range): 6.25 to 25 µM
- MFC ([21]; Aspergillus fumigatus, read-out: MLC Range): 12.5 to 25 µM
- MIC ([21]; Aspergillus fumigatus, read-out: mean MIC value): 11.9 µM
- effectiveness compared with ITZ and AMB ([21]; susceptible isolates): less effective than ITZ and AMB in susceptible isolates
- MLC values relative to MIC values ([21]; various Aspergillus fumigatus isolates): either the same as or twofold higher than the MIC values
- IC50 ([13]; read-out: CEM cells IC50): 20.1 µM
- IC50 ([13]; read-out: IC50 CEM): 20.1 µM
- TIL1210 (CEM cells) [13]: 2.89
- TIP388 (CEM cells) [13]: 18.31
- TIht (CEM cells) [13]: 0.78
- IC50 [14]: 1.1 µM
